Test system: C. formosanus workers
Assay: whole plant or invertebrate
Format: in vivo, Coptotermes formosanus
Conditions: for Consumption (mg) day 8: wood slice
Procedure: Three-chambered transparent plastic containers as described in Example 4 were used to test the effectiveness of 2′-acetonaphthone as a barrier to prevent termites from reaching a food source. Each tested concentration of 2′-acetonaphthone was dissolved in 60 ml ethanol and mixed with 600 g of sand. For a control, 600 g of sand was mixed with 60 ml ethanol. The untreated and treated sand were placed in holding containers, and kept overnight at ambient conditions for solvent evaporation. In each container, sand was mixed with 60 ml DDH2O. Into the middle chamber, 110 g of either treated or untreated sand was gently added, packed, and leveled to clearly see tunnels. Six replicates were used for each concentration and control. Weighed balsa wood slices (0.159 cm×3.5 cm×6.0 cm, Ochroma lagopus Swartz) were placed in one of the two lateral chambers and wetted with 1 ml DDH2O. Into each container, 200 workers and 20 soldiers were released in the opposite lateral chamber from the wood slice. Termites were thus required to cross through the treated sand in the middle chamber to reach the food source. Containers were covered, and incubated in complete darkness at 27.4° C. and 70% RH. If necessary, 1 ml DDH2O was added to the sand and wood slice twice a week to maintain proper moisture. Three separate experiments were conducted using the same technique with different colonies.
In the first experiment, termites from Colony BS were used, and tested concentrations of 2′-acetonaphthone were 0.0, 16.67, 33.33, 50.0, 100.0, and 200.0 mg/kg sand. The number of dead workers was recorded daily to day 6. On day 6, the number of living workers in the releasing chamber was also recorded, and the bottoms of the three-chambered containers were scanned (ScanJet 4C, Hewlett-Packard, Palo Alto, Calif.). The images were printed in actual size, and the tunnel areas measured. After 8 days, the total number of living workers in each container was recorded; and the wood slices were gently cleaned using deionized water with a small brush. The slices were then oven dried at 60° C. for 3 h and reweighed. The difference in weight of the wood slices from the initial weighing was used to calculate food consumption.
The experiment was repeated a third time to further test for molting failures. The protocol was described as above. Five concentrations of 2′-acetonaphthone (4.15, 8.33, 16.67, 33.33, and 66.67 mg/kg sand) were evaluated using termites from colony WB. Tunnels were scanned, printed, and areas measured on days 2, 3, 4 and 7. Percent survival and food consumption were calculated on day 12 as previously described. To evaluate the effect of 2′-acetonaphthone treatments on worker survival, tunnel area and food consumption, an analysis of variance was conducted followed by a least significant difference procedure.

[1] = Coptotermes formosanus, 168 h, read-out: Mortality (%), day 7

CC(=O)c1ccc2ccccc2c1 [2′-acetonaphthone]
Food consumption (mg) day 12 (4.16 mg kg^−1, colony E): 27.1 ± 2.3 b mg
Molting failure (%), day 7 (4.16 mg kg^−1, colony E): 26.7 ± 6.0 a %
Survival (%) day 12 (4.16 mg kg^−1, colony E): 34.2 ± 6.0 a %
Termite (%), workers counted in the releasing chambers on day 5 (4.16 mg kg^−1, colony E): 34.9 ± 2.8 b %
Tunnel area (cm^2), day 12 (4.16 mg kg^−1, colony E): 22.8 ± 4.4 a cm^2
Food consumption (mg) day 12 (4.16 mg/kg, colony WB): 35.0 ± 13.8 a mg
Survival (%) day 12 (4.16 mg/kg, colony WB): 55.8 ± 7.3 a %
Tunnel area (cm^2), day 2 (4.16 mg/kg, colony WB): 3.4 ± 1.6 a cm^2
Tunnel area (cm^2), day 3 (4.16 mg/kg, colony WB): 6.1 ± 2.6 ab cm^2
Tunnel area (cm^2), day 4 (4.16 mg/kg, colony WB): 8.0 ± 2.7 ab cm^2
Tunnel area (cm^2), day 7 (4.16 mg/kg, colony WB): 17.0 ± 4.5 a cm^2
Food consumption (mg) day 12 (8.33 mg kg^−1, colony E): 0.0 ± 0.0 c mg
Molting failure (%), day 7 (8.33 mg kg^−1, colony E): 11.5 ± 1.9 b %
Survival (%) day 12 (8.33 mg kg^−1, colony E): 4.2 ± 1.9 b %
Termite (%), workers counted in the releasing chambers on day 5 (8.33 mg kg^−1, colony E): 77.9 ± 4.5 a %
Tunnel area (cm^2), day 12 (8.33 mg kg^−1, colony E): 2.8 ± 1.9 b cm^2
Food consumption (mg) day 12 (8.33 mg/kg, colony WB): 8.3 ± 3.1 b mg
Survival (%) day 12 (8.33 mg/kg, colony WB): 7.4 ± 3.3 b %
Tunnel area (cm^2), day 2 (8.33 mg/kg, colony WB): 2.3 ± 1.3 a cm^2
Tunnel area (cm^2), day 3 (8.33 mg/kg, colony WB): 3.1 ± 1.2 bc cm^2
Tunnel area (cm^2), day 4 (8.33 mg/kg, colony WB): 3.5 ± 1.3 bc cm^2
Tunnel area (cm^2), day 7 (8.33 mg/kg, colony WB): 4.5 ± 1.8 b cm^2
Food consumption (mg) day 12 (16.67 mg kg^−1, colony E): 0.0 ± 0.0 c mg
Molting failure (%), day 7 (16.67 mg kg^−1, colony E): 13.9 ± 1.2 b %
Survival (%) day 12 (16.67 mg kg^−1, colony E): 0.0 ± 0.0 b %
Termite (%), workers counted in the releasing chambers on day 5 (16.67 mg kg^−1, colony E): 78.6 ± 4.0 a %
Tunnel area (cm^2), day 12 (16.67 mg kg^−1, colony E): 0.0 ± 0.0 b cm^2
Survival (%) day 8 (16.67 mg/kg sand, colony BS): 6.8 ± 6.7 b %
Termite (%) day 6, percent workers in the releasing chambers (16.67 mg/kg sand, colony BS): 39.8 ± 8.8 b %
Tunnel area (cm^2) day 6 (16.67 mg/kg sand, colony BS): 1.4 ± 0.9 b cm^2
Consumption (mg) day 8 (16.67 mg/kg sand, colony BS): 3.3 ± 3.3 b mg
Food consumption (mg) day 12 (16.67 mg/kg, colony WB): 3.3 ± 2.1 b mg
Survival (%) day 12 (16.67 mg/kg, colony WB): 0.0 ± 0.0 b %
Tunnel area (cm^2), day 2 (16.67 mg/kg, colony WB): 0.9 ± 0.4 a cm^2
Tunnel area (cm^2), day 3 (16.67 mg/kg, colony WB): 1.6 ± 1.0 bc cm^2
Tunnel area (cm^2), day 4 (16.67 mg/kg, colony WB): 1.7 ± 1.0 c cm^2
Tunnel area (cm^2), day 7 (16.67 mg/kg, colony WB): 0.7 ± 0.5 b cm^2
Food consumption (mg) day 12 (33.33 mg kg^−1, colony E): 0.0 ± 0.0 c mg
Molting failure (%), day 7 (33.33 mg kg^−1, colony E): 15.9 ± 2.4 b %
Survival (%) day 12 (33.33 mg kg^−1, colony E): 0.0 ± 0.0 b %
Termite (%), workers counted in the releasing chambers on day 5 (33.33 mg kg^−1, colony E): 79.6 ± 2.2 a %
Tunnel area (cm^2), day 12 (33.33 mg kg^−1, colony E): 0.0 ± 0.0 b cm^2
Survival (%) day 8 (33.33 mg/kg sand, colony BS): 19.1 ± 9.1 b %
Termite (%) day 6, percent workers in the releasing chambers (33.33 mg/kg sand, colony BS): 39.8 ± 10.2 b %
Tunnel area (cm^2) day 6 (33.33 mg/kg sand, colony BS): 5.5 ± 2.1 b cm^2
Consumption (mg) day 8 (33.33 mg/kg sand, colony BS): 11.7 ± 8.2 b mg
Food consumption (mg) day 12 (33.33 mg/kg, colony WB): 3.3 ± 2.1 b mg
Survival (%) day 12 (33.33 mg/kg, colony WB): 0.1 ± 0.1 b %
Tunnel area (cm^2), day 2 (33.33 mg/kg, colony WB): 0.0 ± 0.0 a cm^2
Tunnel area (cm^2), day 3 (33.33 mg/kg, colony WB): 0.0 ± 0.0 c cm^2
Tunnel area (cm^2), day 4 (33.33 mg/kg, colony WB): 0.0 ± 0.0 c cm^2
Tunnel area (cm^2), day 7 (33.33 mg/kg, colony WB): 0.0 ± 0.0 b cm^2
Survival (%) day 8 (50.0 mg/kg sand, colony BS): 1.8 ± 1.8 b %
Termite (%) day 6, percent workers in the releasing chambers (50.0 mg/kg sand, colony BS): 31.2 ± 2.8 b %
Tunnel area (cm^2) day 6 (50.0 mg/kg sand, colony BS): 2.5 ± 1.1 b cm^2
Consumption (mg) day 8 (50.0 mg/kg sand, colony BS): 0.0 ± 0.0 b mg
Food consumption (mg) day 12 (66.67 mg/kg, colony WB): 4.2 ± 3.3 b mg
Survival (%) day 12 (66.67 mg/kg, colony WB): 0.0 ± 0.0 b %
Tunnel area (cm^2), day 2 (66.67 mg/kg, colony WB): 0.4 ± 0.2 a cm^2
Tunnel area (cm^2), day 3 (66.67 mg/kg, colony WB): 0.4 ± 0.2 c cm^2
Tunnel area (cm^2), day 4 (66.67 mg/kg, colony WB): 0.4 ± 0.2 c cm^2
Tunnel area (cm^2), day 7 (66.67 mg/kg, colony WB): 0.4 ± 0.2 b cm^2
Survival (%) day 8 (100.0 mg/kg sand, colony BS): 0.0 ± 0.0 b %
Termite (%) day 6, percent workers in the releasing chambers (100.0 mg/kg sand, colony BS): 79.8 ± 8.7 a %
Tunnel area (cm^2) day 6 (100.0 mg/kg sand, colony BS): 3.3 ± 1.6 b cm^2
Consumption (mg) day 8 (100.0 mg/kg sand, colony BS): 0.0 ± 0.0 b mg
Survival (%) day 8 (200.0 mg/kg sand, colony BS): 1.3 ± 1.3 b %
Termite (%) day 6, percent workers in the releasing chambers (200.0 mg/kg sand, colony BS): 81.8 ± 6.0 a %
Tunnel area (cm^2) day 6 (200.0 mg/kg sand, colony BS): 0.0 ± 0.0 b cm^2
Consumption (mg) day 8 (200.0 mg/kg sand, colony BS): 0.0 ± 0.0 b mg
mortality at 4.16 mg/kg [1]: 35.9 ± 4.4%
mortality at 8.33 mg/kg [1]: 71.8 ± 8.8%
mortality at 16.67 mg/kg [1]: 99.5 ± 0.5%
mortality at 33.33 mg/kg [1]: 100%
Food consumption (all treatments 16.67 to 200 mg/kg, control 98.3 mg, day 8): ≤ 11.7 mg
concentration giving significant reduction in tunneling and feeding activity (as low as): 8 mg/kg sand
concentration at which no food was consumed (colony BS, day 8): ≥ 50 mg/kg
concentration at which no termite reached the feeding chamber (colony E): > 8.16 mg/kg
concentration forming an effective barrier (toxic, inhibits tunneling and feeding) (treated sand): ≥ 8.33 mg/kg

— patent US7351744B2, “Naphthalene derivatives as termite repellents and toxicants” (Board of Supervisors of Louisiana State University and …, priority 2003, dated 2008)
